Each compound was assayed against T1, SGK1 (Homo sapiens, UniProt O00141) (assay: SGK1 inhibition Assay B (Echo mass spectrometry of phosphorylated peptide product)). Conditions: 60 min at room temperature.
T1 sequence (O00141 1-431): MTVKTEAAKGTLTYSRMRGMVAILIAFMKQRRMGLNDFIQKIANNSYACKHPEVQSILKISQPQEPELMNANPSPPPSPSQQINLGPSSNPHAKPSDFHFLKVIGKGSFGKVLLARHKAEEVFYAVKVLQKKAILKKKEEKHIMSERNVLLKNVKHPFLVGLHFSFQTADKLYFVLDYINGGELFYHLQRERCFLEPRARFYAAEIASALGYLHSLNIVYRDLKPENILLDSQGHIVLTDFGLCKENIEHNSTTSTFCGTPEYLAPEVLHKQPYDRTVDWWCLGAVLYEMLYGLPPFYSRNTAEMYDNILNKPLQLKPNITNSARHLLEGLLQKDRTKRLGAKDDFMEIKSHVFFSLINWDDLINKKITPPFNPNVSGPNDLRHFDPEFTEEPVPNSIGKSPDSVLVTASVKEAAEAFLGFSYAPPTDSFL
Format: biochemical
Method: 20 μl of 2 nM SGK1 were added in 20 mM Hepes+10 mM MgCl2+0015% Brij-35+4 mM DTT+0.05 mg/ml BSA and the reaction incubated for 60 min at room temperature. The enzymatic reaction was quenched by addition 10 μl of 1% Formic Acid+150 nM Internal Standard: FITC-(Ahx)KKRNRR(pS)VA^—OH (final concentration). The plates are spun down at 3700 RPM for 10 minutes to remove all precipitate. Samples were loaded on to the Sciex Echo Mass Spec attached to a Sciex 6500 equipped with ESI and was used to analyze the phosphorylated peptide product. MRM transition of product and internal standard were monitored at m/z 755 to 937.5 and m/z 757.7 to 941.3 respectively. Peak area of analyte was normalized with internal standard.
Dose response curves were generated to determine the concentration required for inhibiting 50% of the enzyme activity. Compounds were dissolved at 10 mM in dimethylsulfoxide (DMSO) and evaluated at eleven concentrations.
For `Nc1ncnn2c(-c3ccnc(C(F)F)c3)cc(N3CCC[C@@H](NC(=O)c4ccc(C(F)F)s4)C3)c12` [Example 482, (R)-N-(1-(4-amino-7-(2-(difluoromethyl)pyridin-4-yl)pyrrolo[2,1-f][1,2,4]triazin-5-yl)piperidin-3-yl)-5-(difluoromethyl)thiophene-2-carboxamide], the IC50 was 3 nM. Work on `Cc1cc(-c2cc(N3CCC[C@@H](NC(=O)c4sc(C)nc4OC4CCC(N5CCC5)CC4)C3)c3c(N)ncnn23)cnn1` (stereo partly drawn) [Example 1047, N—((R)-1-(4-amino-7-(6-methylpyridazin-4-yl)pyrrolo[2,1-f][1,2,4]triazin-5-yl)piperidin-3-yl)-4-((4-(azetidin-1-yl)cyclohexyl)oxy)-2-methylthiazole-5-carboxamide] yielded an IC50 of 9.9 nM. In the case of `Cc1nc(OC2CCC(N3CC(O)C3)CC2)c(C(=O)N[C@@H]2CCCN(c3cc(C#N)n4ncnc(N)c34)C2)s1` (stereo partly drawn) [Example 1048, (R)—N-(1-(4-amino-7-cyanopyrrolo[2,1-f][1,2,4]triazin-5-yl)piperidin-3-yl)-4-((4-(3-hydroxyazetidin-1-yl)cyclohexyl)oxy)-2-methylthiazole-5-carboxamide], the IC50 is reported as 3.1 nM. `Cc1nc(OC2CCC(N3CCC3)CC2)c(C(=O)N[C@@H]2CCCN(c3cc(C#N)n4ncnc(N)c34)C2)s1` (stereo partly drawn) [Example 1049, (R)—N-(1-(4-amino-7-cyanopyrrolo[2,1-f][1,2,4]triazin-5-yl)piperidin-3-yl)-4-((4-(azetidin-1-yl)cyclohexyl)oxy)-2-methylthiazole-5-carboxamide] gave an IC50 of 1.9 nM. Work on `Cc1nc(OC2CCC(N3CCC3)CC2)c(C(=O)N[C@@H]2CCCN(c3cc(-c4csc(C(N)=O)n4)n4ncnc(N)c34)C2)s1` (stereo partly drawn) [Example 1050, (R)-4-(4-amino-5-(3-(4-((4-(azetidin-1-yl)cyclohexyl)oxy)-2-methylthiazole-5-carboxamido)piperidin-1-yl)pyrrolo[2,1-f][1,2,4]triazin-7-yl)thiazole-2-carboxamide] yielded an IC50 of 0.6 nM. With `Cc1nc(OC2CCC(N3CCC3)CC2)c(C(=O)N[C@@H]2CCCN(c3cc(-c4nc(C(N)=O)cs4)n4ncnc(N)c34)C2)s1` (stereo partly drawn) [Example 1052, (R)-2-(4-amino-5-(3-(4-((4-(azetidin-1-yl)cyclohexyl)oxy)-2-methylthiazole-5-carboxamido)piperidin-1-yl)pyrrolo[2,1-f][1,2,4]triazin-7-yl)thiazole-4-carboxamide] the IC50 was 0.9 nM. Work on `CC[C@H](CO)NC1CCC(Oc2nc(C)sc2C(=O)N[C@@H]2CCCN(c3cc(-c4csc(C(=O)NC)n4)n4ncnc(N)c34)C2)CC1` (stereo partly drawn) [Example 1053, 4-(4-amino-5-((R)-3-(4-((4-(((R)-1-hydroxybutan-2-yl)amino)cyclohexyl)oxy)-2-methylthiazole-5-carboxamido)piperidin-1-yl)pyrrolo[2,1-f][1,2,4]triazin-7-yl)-N-methylthiazole-2-carboxamide] yielded an IC50 of 0.8 nM. `CCC(C)(C)NC1CCC(Oc2nc(C)sc2C(=O)N[C@@H]2CCCN(c3cc(-c4ccc(C(N)=O)c(F)n4)n4ncnc(N)c34)C2)CC1` (stereo partly drawn) [Example 1055, (R)—N-(1-(4-amino-7-(5-carbamoyl-6-fluoropyridin-2-yl)pyrrolo[2,1-f][1,2,4]triazin-5-yl)piperidin-3-yl)-2-methyl-4-((4-(tert-pentylamino)cyclohexyl)oxy)thiazole-5-carboxamide] gave an IC50 of 0.5 nM. `Cc1nc(OC2CCC(NC(C)(C)C)CC2)c(C(=O)N[C@@H]2CCCN(c3cc(-c4ccc(C(N)=O)c(F)n4)n4ncnc(N)c34)C2)s1` (stereo partly drawn) [Example 1056, (R)—N-(1-(4-amino-7-(5-carbamoyl-6-fluoropyridin-2-yl)pyrrolo[2,1-f][1,2,4]triazin-5-yl)piperidin-3-yl)-4-((4-(tert-butylamino)cyclohexyl)oxy)-2-methylthiazole-5-carboxamide] showed an IC50 of 0.7 nM. Work on `COc1nc(-c2cc(N3CCC[C@@H](NC(=O)c4sc(C)nc4O[C@H]4CC[C@@H](N(C)C)CC4)C3)c3c(N)ncnn23)ccc1C(N)=O` [Example 1057, N—((R)-1-(4-amino-7-(5-carbamoyl-6-methoxypyridin-2-yl)pyrrolo[2,1-f][1,2,4]triazin-5-yl)piperidin-3-yl)-4-(((1S,4S)-4 (dimethylamino)cyclohexyl)oxy)-2-methylthiazole5-carboxamide] yielded an IC50 of 1.7 nM. `CNC(=O)c1ccc(-c2cc(N3CCC[C@@H](NC(=O)c4sc(C)nc4O[C@H]4CC[C@@H](N(C)C)CC4)C3)c3c(N)ncnn23)nc1OC` [Example 1058, N—((R)-1-(4-amino-7-(6-methoxy-5-(methylcarbamoyl)pyridin-2-yl)pyrrolo[2,1-f][1,2,4]triazin-5-yl)piperidin-3-yl)-4-(((1S,4S)-4-(dimethylamino)cyclohexyl)oxy)-2-methylthiazole-5-carboxamide] showed an IC50 of 1.1 nM. In the case of “(R)-N-(1-(4-amino-7-(4-(5-methyl-1H-tetrazol-1-yl)phenyl)pyrrolo[2,1-f][1,2,4]triazin-5-yl)piperidin-3-yl)-2-(4-methylpiperazin-1-yl)pyrimidine-4-carboxamide [Example 857]”, the IC50 is reported as 15 nM. “N—((R)-1-(4-amino-7-(2-(tert-butyl)-1,1-dioxido-2,3-dihydrobenzo[d]isothiazol-5-yl)pyrrolo[2,1-f][1,2,4]triazin-5-yl)piperidin-3-yl)-5-chloro-3-(((1R,3s,5S)-8-methyl-8-azabicyclo [3.2.1]octan-3-yl)oxy)thiophene-2-carboxamide [Example 967]” gave an IC50 of 0.9 nM. “N—((R)-1-(4-amino-7-(5-fluoro-1-(2-methoxyethyl)-6-oxo-1,6-dihydropyridin-3-yl)pyrrolo[2,1-f][1,2,4]triazin-5-yl)piperidin-3-yl)-5-chloro-3-(((1R,3s,5S)-8-methyl-8-azabicyclo[3.2.1]octan-3-yl)oxy)thiophene-2-carboxamide [Example 974]” gave an IC50 of 1 nM.

These compounds were tested against T2, full length SGK1 (Homo sapiens, UniProt O00141) (assay: SGK1 inhibition Assay A (Caliper LabChip electrophoretic separation of fluorescent peptide substrate and phosphorylated product)). Conditions: Assay A; 20 μM ATP, 40 min incubation; read-out: SGK1 IC50.
T2 construct: 125 μM full length SGK1 (Life Technologies Part #PR7358A); purchased Life Technologies PR7358A
T2 sequence (O00141 1-431): T1 sequence (O00141 1-431)
Format: biochemical
Compound `Nc1ncnn2c(-c3ccnc(C(F)F)c3)cc(N3CCC[C@@H](NC(=O)c4ccc(C(F)F)s4)C3)c12` [Example 482, (R)-N-(1-(4-amino-7-(2-(difluoromethyl)pyridin-4-yl)pyrrolo[2,1-f][1,2,4]triazin-5-yl)piperidin-3-yl)-5-(difluoromethyl)thiophene-2-carboxamide] has an IC50 of 6 nM.
